The record followed here is ChEMBL document CHEMBL1909046, “DrugMatrix in vitro pharmacology data”.

Experiment [1] has as its target 5-hydroxytryptamine receptor 6 (Homo sapiens, UniProt P50406). It is filed as cell membranes, HeLa, Membrane. Also: in other assays of this panel Not Active means under 50% inhibition at 10 µM.
Experiment [2] can be described thus: DRUGMATRIX: Serotonin (5-Hydroxytryptamine) 5-HT3 radioligand binding (ligand: [3H] GR-65630). Particulars: hek293; Not Active = under 50% inhibition at 10 µM. It is filed as cell membranes, Membrane.
For a further experiment, the target named is Carbonic anhydrase 2 (Homo sapiens, UniProt P00918). Briefly: DRUGMATRIX: Carbonic Anhydrase II enzyme inhibition (substrate: 4-Nitrophenyl acetate (4-NPA)). The class given is tissue-based, Erythrocyte. Particulars: erythrocyte; Not Active = under 50% inhibition at 10 µM.
For experiment [3], the target named is T1, Muscarinic acetylcholine receptor M4 (Homo sapiens, UniProt P08173). Also: in other assays of this panel Not Active means under 50% inhibition at 10 µM.
T1 sequence (P08173 whole entry): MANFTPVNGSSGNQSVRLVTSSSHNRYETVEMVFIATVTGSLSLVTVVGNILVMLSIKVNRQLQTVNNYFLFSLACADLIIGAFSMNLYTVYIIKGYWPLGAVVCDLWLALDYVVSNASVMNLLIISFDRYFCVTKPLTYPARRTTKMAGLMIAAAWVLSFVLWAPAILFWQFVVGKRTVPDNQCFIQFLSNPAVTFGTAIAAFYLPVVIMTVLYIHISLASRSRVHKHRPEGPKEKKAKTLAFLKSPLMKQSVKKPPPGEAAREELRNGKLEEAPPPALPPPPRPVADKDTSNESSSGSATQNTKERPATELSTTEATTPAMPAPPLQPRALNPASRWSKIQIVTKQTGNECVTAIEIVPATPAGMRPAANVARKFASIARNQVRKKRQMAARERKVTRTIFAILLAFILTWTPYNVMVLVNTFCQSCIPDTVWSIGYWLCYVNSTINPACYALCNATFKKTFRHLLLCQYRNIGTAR
The class given is cell membranes, CHO-K1, Membrane.

The target of experiment [4] is T2, Angiotensin-converting enzyme (Oryctolagus cuniculus, UniProt P12822).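 Also: enzymatic inhibition of angiotensin-converting enzyme measured with FAPGG as the substrate; in other assays of this panel Not Active means under 50% inhibition at 10 µM.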
T2 sequence (P12822 whole entry): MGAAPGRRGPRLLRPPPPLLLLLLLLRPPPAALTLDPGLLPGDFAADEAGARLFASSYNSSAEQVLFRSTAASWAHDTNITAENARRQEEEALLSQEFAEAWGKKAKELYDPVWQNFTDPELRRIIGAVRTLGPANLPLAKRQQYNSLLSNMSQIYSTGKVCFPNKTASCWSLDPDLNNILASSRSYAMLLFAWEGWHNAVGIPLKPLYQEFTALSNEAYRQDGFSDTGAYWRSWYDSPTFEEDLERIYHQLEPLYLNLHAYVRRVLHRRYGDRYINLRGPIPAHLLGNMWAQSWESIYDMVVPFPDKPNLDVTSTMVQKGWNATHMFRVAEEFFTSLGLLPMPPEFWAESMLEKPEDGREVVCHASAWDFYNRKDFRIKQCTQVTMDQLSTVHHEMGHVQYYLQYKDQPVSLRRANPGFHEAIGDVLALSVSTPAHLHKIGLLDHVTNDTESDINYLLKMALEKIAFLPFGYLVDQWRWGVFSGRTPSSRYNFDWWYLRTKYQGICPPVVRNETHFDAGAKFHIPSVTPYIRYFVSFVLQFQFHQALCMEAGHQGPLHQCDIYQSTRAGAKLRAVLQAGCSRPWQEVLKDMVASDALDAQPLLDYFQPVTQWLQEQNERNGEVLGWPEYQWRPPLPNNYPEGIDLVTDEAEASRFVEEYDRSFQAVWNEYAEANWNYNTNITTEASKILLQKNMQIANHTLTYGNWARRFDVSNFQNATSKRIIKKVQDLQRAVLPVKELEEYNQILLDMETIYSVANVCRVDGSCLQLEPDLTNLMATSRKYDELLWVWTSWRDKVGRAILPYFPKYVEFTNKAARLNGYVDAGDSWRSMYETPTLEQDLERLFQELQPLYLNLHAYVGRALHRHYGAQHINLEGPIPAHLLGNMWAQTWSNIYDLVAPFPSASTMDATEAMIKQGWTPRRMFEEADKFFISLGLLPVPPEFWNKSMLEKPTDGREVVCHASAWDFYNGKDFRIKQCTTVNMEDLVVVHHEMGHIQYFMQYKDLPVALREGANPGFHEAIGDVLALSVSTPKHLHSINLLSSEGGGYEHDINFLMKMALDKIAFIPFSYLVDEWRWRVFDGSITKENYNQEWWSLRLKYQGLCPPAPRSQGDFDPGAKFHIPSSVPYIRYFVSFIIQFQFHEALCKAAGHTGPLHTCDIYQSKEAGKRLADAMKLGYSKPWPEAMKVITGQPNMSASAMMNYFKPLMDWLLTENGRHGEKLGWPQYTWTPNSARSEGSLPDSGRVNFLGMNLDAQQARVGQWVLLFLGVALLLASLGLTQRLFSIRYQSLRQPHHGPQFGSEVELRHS
The class given is tissue-based, Lung.

Experiment [5] is described as follows: DRUGMATRIX: GABAA, Muscimol, Central radioligand binding (ligand: [3H] Muscimol). The class given is cell membranes, Rattus norvegicus, Wistar, Brain, Membrane. Particulars: Not Active = under 50% inhibition at 10 µM.
Experiment [6] deals with T3, Vasoactive intestinal polypeptide receptor 1 (Homo sapiens, UniProt P32241).
T3 sequence (P32241 whole entry): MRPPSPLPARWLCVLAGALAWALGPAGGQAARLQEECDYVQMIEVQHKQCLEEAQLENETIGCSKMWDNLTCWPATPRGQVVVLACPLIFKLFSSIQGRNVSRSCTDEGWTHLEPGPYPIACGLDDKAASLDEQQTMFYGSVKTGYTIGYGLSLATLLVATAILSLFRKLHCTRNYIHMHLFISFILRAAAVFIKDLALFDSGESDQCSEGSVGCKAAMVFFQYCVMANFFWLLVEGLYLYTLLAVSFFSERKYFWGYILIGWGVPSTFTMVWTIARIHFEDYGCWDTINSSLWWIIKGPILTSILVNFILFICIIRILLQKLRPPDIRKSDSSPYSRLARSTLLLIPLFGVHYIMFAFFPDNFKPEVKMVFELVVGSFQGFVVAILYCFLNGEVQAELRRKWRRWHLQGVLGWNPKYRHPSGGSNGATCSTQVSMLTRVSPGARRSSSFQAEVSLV
It is filed as cell membranes, Membrane. The note with it: ht-29.

What is called IC50 is the concentration needed to halve the response being measured. Usually Ki stands for a measure of affinity in units of concentration, obtained from inhibition or displacement.

5-hydroxytryptamine receptor 6, sequence (P50406 whole entry): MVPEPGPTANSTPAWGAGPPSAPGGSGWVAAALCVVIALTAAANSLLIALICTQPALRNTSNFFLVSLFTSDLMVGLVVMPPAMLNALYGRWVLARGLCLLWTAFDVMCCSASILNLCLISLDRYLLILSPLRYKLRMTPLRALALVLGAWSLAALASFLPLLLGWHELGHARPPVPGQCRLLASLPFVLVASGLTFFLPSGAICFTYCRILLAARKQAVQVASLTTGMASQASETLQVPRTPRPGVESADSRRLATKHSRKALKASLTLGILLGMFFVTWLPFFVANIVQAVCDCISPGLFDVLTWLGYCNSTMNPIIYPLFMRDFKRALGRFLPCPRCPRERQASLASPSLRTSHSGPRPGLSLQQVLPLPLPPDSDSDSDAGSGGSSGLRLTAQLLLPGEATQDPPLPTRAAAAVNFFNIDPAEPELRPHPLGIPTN

Regarding `N=C(N)NCCN1CCCCCCC1` [GUANETHIDINE], the 50% inhibitory concentration (IC50) result (in experiment [1] (hela); in experiment [2]; at Carbonic anhydrase 2; in experiment [3] (cho-k1); in experiment [4]; in experiment [5]) was “Not Active” throughout. In addition, in experiment [6], the IC50 entry is listed as “Not Active”. Further, the inhibitory constant (Ki) result in experiment [2] and in experiment [5] was “Not Active” throughout.

As to `CC(C)CN(C[C@@H](O)[C@H](Cc1ccccc1)NC(=O)O[C@H]1CCOC1)S(=O)(=O)c1ccc(N)cc1`, the IC50 entry (in experiment [1] (hela); in experiment [2]; at Carbonic anhydrase 2; in experiment [3] (cho-k1); in experiment [4]; in experiment [5]) was “Not Active” throughout. Also, in experiment [6], the IC50 entry is recorded as “Not Active”. Moreover, the inhibition constant Ki result in experiment [2] and in experiment [5] was “Not Active” in each case.

For `O=c1[nH]c(=O)n([C@H]2C[C@H](O)[C@@H](CO)O2)cc1I` [IDOXURIDINE], the 50% inhibitory concentration (IC50) entry (in experiment [1] (hela); in experiment [2]; at Carbonic anhydrase 2; in experiment [3] (cho-k1); in experiment [4]; in experiment [5]) was “Not Active” each time. Besides, the IC50 result in experiment [6] was “Not Active”. The Ki result in experiment [2] and in experiment [5] was “Not Active” each time.

As for `C[C@H](CCC(=O)O)[C@H]1CC[C@H]2[C@@H]3[C@H](O)C[C@@H]4C[C@H](O)CC[C@]4(C)[C@H]3C[C@H](O)[C@]12C` [CHOLIC ACID], the IC50 entry (in experiment [1] (hela); in experiment [2]; against Carbonic anhydrase 2; in experiment [3] (cho-k1); in experiment [4]; in experiment [5]) was “Not Active” each time. Also, the IC50 result in experiment [6] is reported as “Not Active”. The Ki entry in experiment [2] and in experiment [5] was “Not Active” each time.

For `O=C(CCCN1CC=C(n2c(=O)[nH]c3ccccc32)CC1)c1ccc(F)cc1` [DROPERIDOL], the half-inhibitory concentration (IC50) result was “Not Active” in experiment [1] (hela); “Not Active” in experiment [2]; “Not Active” on Carbonic anhydrase 2; 3850 nM in experiment [3] (read-out: IC50); “Not Active” in experiment [4]; “Not Active” in experiment [5]. Further, in experiment [6], the half-maximal inhibitory concentration (IC50) entry was “Not Active”. In addition, the inhibition constant Ki result in experiment [2] was “Not Active”; in experiment [3] (read-out: Ki), 537 nM; in experiment [5], “Not Active”.

`CC(=O)O[C@@]12CO[C@@H]1C[C@H](O)[C@@]1(C)C(=O)[C@H](O)C3=C(C)[C@@H](OC(=O)[C@H](O)[C@@H](NC(=O)OC(C)(C)C)c4ccccc4)C[C@@](O)([C@@H](OC(=O)c4ccccc4)[C@H]21)C3(C)C.O.O.O` [DOCETAXEL]: the IC50 result (in experiment [1] (hela); in experiment [2]; against Carbonic anhydrase 2; in experiment [3] (cho-k1); in experiment [4]; in experiment [5]) was “Not Active” in each case. Also, in experiment [6], the IC50 entry was “Not Active”. The inhibition constant Ki entry in experiment [2] and in experiment [5] was “Not Active” in each case.

In the case of `C[C@H]1c2cccc(O)c2C(=O)C2=C(O)[C@]3(O)C(=O)C(C(N)=O)=C(O)[C@@H](N(C)C)[C@@H]3[C@@H](O)[C@@H]21.O` [DOXYCYCLINE], the half-inhibitory concentration (IC50) entry (in experiment [1] (hela); in experiment [2]; on Carbonic anhydrase 2; in experiment [3] (cho-k1); in experiment [4]; in experiment [5]) was “Not Active” throughout. The concentration for half-maximal inhibition (IC50) entry in experiment [6] was “Not Active”. The Ki entry in experiment [2] and in experiment [5] was “Not Active” each time.

As to CADMIUM ACETATE, the IC50 result (in experiment [1] (hela); in experiment [2]; against Carbonic anhydrase 2; in experiment [3] (cho-k1); in experiment [4]; in experiment [5]) was “Not Active” in each case. Further, the half-inhibitory concentration (IC50) entry in experiment [6] is recorded as “Not Active”. Besides, the Ki result (in experiment [1] (hela); in experiment [2]; at Carbonic anhydrase 2; in experiment [3] (cho-k1); in experiment [4]; in experiment [5]) was “Not Active” each time. For the same compound, in experiment [6], the Ki result was “Not Active”.

As to `CC(C)[C@@]1(NC(=O)[C@@H]2C[C@@H]3c4cccc5[nH]cc(c45)C[C@H]3N(C)C2)O[C@@]2(O)[C@@H]3CCCN3C(=O)[C@H](Cc3ccccc3)N2C1=O.CS(=O)(=O)O` [DIHYDROERGOCRISTINE MESYLATE], the concentration for half-maximal inhibition (IC50) in experiment [1] (read-out: IC50) was 42 nM; in experiment [2] it was “Not Active”; against Carbonic anhydrase 2, “Not Active”; in experiment [3] (cho-k1) it was “Not Active”; in experiment [4] it was “Not Active”; in experiment [5], “Not Active”. Besides, the 50% inhibitory concentration (IC50) entry in experiment [6] is on record as “Not Active”. Further, the results for the Ki in experiment [1] (read-out: Ki), in experiment [2] and in experiment [5] were 19 nM, “Not Active” and “Not Active”, respectively.

On to LIPOPOLYSACCHARIDE E. COLI O55:B5, for which the IC50 entry (in experiment [1] (hela); in experiment [2]; against Carbonic anhydrase 2; in experiment [3] (cho-k1); in experiment [4]; in experiment [5]) was “Not Active” in each case. Besides, in experiment [6], the IC50 entry is reported as “Not Active”. Besides, the Ki entry (in experiment [1] (hela); in experiment [2]; on Carbonic anhydrase 2; in experiment [3] (cho-k1); in experiment [4]; in experiment [5]) was “Not Active” throughout. Besides, the inhibition constant Ki result in experiment [6] is recorded as “Not Active”.

As to `Nc1c(Br)cc(Br)cc1CN[C@H]1CC[C@H](O)CC1` [AMBROXOL], the 50% inhibitory concentration (IC50) entry (in experiment [1] (hela); in experiment [2]; on Carbonic anhydrase 2; in experiment [3] (cho-k1); in experiment [4]; in experiment [5]) was “Not Active” each time. Also, the IC50 result in experiment [6] is listed as “Not Active”. In addition, the Ki entry in experiment [2] and in experiment [5] was “Not Active” throughout.

Regarding `NCCCCCC(=O)O` [AMINOCAPROIC ACID], the IC50 result (in experiment [1] (hela); in experiment [2]; against Carbonic anhydrase 2; in experiment [3] (cho-k1); in experiment [4]; in experiment [5]) was “Not Active” throughout. Further, in experiment [6], the IC50 entry is “Not Active”. The Ki result in experiment [2] and in experiment [5] was “Not Active” throughout.
